Patent EP4768499A1, “MACROCYCLIC PEPTIDE COMPOUND HAVING CELL MEMBRANE PERMEABILITY AND METABOLIC STABILITY, AND LIBRARY CONTAINING SAME” (Chugai Seiyaku Kabushiki Kaisha, priority 2023, dated 2025)
Starred links: 1 amine or outer side, 2 acyl side, 3 side chain; linkers in the order of their positions; H or OH if unused. Positions of bridges follow the written chain, without caps; N, C: chain ends. Non-standard residues stand in square brackets, D forms with d. Residues, ends and D or L forms follow the SMILES beside them. *: point of attachment. NMeF = CN[C@@H](Cc1ccccc1)C(=O)O; NMeGABA = CN(CCCC(=O)[*:2])[*:1]; NMeI = CC[C@H](C)[C@H](NC)C(=O)O; NMeT = CN[C@H](C(=O)O)[C@@H](C)O; hPhe = N[C@@H](CCc1ccccc1)C(=O)O; NMeβAla = CN(CCC(=O)[*:2])[*:1]; NMeL = CN[C@@H](CC(C)C)C(=O)O; dNMeV = CN[C@@H](C(=O)O)C(C)C; NMeV = CN[C@H](C(=O)O)C(C)C; d(β3hA) = C[C@@H](N)CC(=O)O; NMeAbu = CC[C@H](NC)C(=O)O; NMeA = CN[C@@H](C)C(=O)O; Piperidide = C1CCN(*)CC1; dNMeA = CN[C@H](C)C(=O)O; Abu = CC[C@H](N)C(=O)O; NBuGly = CCCCNCC(=O)O; Sar = CNCC(=O)O; tBu = CC(C)(C)*

Assays:
Caco-2 cells = assay: Membrane permeability test using Caco-2 cells with preincubation; type: in vitro ADME; details: Caco-2 cells, preincubation 20 to 24 hours; apical FaSSIF/HBSS 1% DMSO pH 6.0, basal HBSS 4% BSA pH 7.4; basal sample at 180 minutes
[1] = as above; type: in vitro ADME; details: Caco-2; preincubation 20 to 24 hours; Apical FaSSIF/HBSS pH 6.0, Basal HBSS 4% BSA pH 7.4; 180 minutes; read-out: Caco2 Papp
[2] = Metabolic stability test: liver microsomal stability assay; type: in vitro ADME, mouse; details: mouse liver microsomes 0.5 mg protein/mL, compound 1 µM; for microsomal CLint at 1 µM: male, pH 7.4, presence of NADPH, read-out: Mouse Hepatic Microsome CLh,int NADPH(+); for Mouse Hepatic Microsome CLh,int NADPH(-): absence of NADPH

Structure (SMILES) | Caco2 Papp (10^-6 cm/sec) (Caco-2 cells) | Papp A→B [1] | microsomal CLint at 1 µM [2] | Mouse Hepatic Microsome CLh,int NADPH(-) [2]
CC[C@H](C)[C@H]1C(=O)N[C@@H]([C@@H](C)O)C(=O)N(C)CC(=O)N(C)[C@@H](CC(C)C)C(=O)N(C)[C@@H](Cc2ccccc2)C(=O)N[C@H](C(=O)N2CCCCC2)CC(=O)N(C)[C@@H](C)C(=O)N[C@@H](CC(C)C)C(=O)N(C)[C@@H](Cc2ccccc2)C(=O)N(C)CCC(=O)N(C)[C@@H](CC(C)C)C(=O)N(C)CCC(=O)N[C@@H](CC(C)C)C(=O)N1C [pd120] ([NMeA]L[NMeF][NMeβAla][NMeL][NMeβAla]L[NMeI]T[Sar][NMeL][NMeF]D-Piperidide; lactam N-13) | 0.69 10^-6 cm/sec | 0.69 ×10⁻⁶ cm/s | 25.8 µL/min/mg | 18.4 µL/min/mg Protein
CC[C@H](C)[C@@H]1NC(=O)[C@H](C)N(C)C(=O)C[C@@H](C(=O)N2CCCCC2)NC(=O)[C@H](CC)N(C)C(=O)[C@H](COC(C)(C)C)NC(=O)[C@H](CC(C)C)N(C)C(=O)[C@H](C)N(C)C(=O)[C@H](CC(C)C)N(C)C(=O)[C@H](Cc2ccccc2)N(C)C(=O)CN(C)C(=O)[C@H]([C@@H](C)O)NC(=O)[C@H](CC(C)C)N(C)C(=O)[C@H](Cc2ccccc2)N(C)C1=O [pd121] ([NMeA]I[NMeF][NMeL]T[Sar][NMeF][NMeL][NMeA][NMeL]S(tBu)[NMeAbu]D-Piperidide; lactam N-13) | 1.02 10^-6 cm/sec | 1.02 ×10⁻⁶ cm/s | 21.9 µL/min/mg | 18.2 µL/min/mg Protein
CC[C@@H]1NC(=O)[C@@H]2CCCN2C(=O)[C@H](C(C)C)NC(=O)[C@H](Cc2ccccc2)N(C)C(=O)[C@H](C)N(C)C(=O)[C@H](CC(C)C)N(C)C(=O)[C@H]([C@@H](C)O)N(C)C(=O)[C@H](CC(C)C)N(C)C(=O)[C@H](CC)NC(=O)[C@H](Cc2ccccc2)N(C)C(=O)CN(C)C(=O)C[C@@H](C(=O)N2CCCCC2)NC(=O)[C@H](C(C)C)N(C)C1=O [pd122] ([Sar][NMeF][Abu][NMeL][NMeT][NMeL][NMeA][NMeF]VP[Abu][NMeV]D-Piperidide; lactam N-13) | 0.06 10^-6 cm/sec | 0.06 ×10⁻⁶ cm/s | 11.1 µL/min/mg | 9.6 µL/min/mg Protein
CCCCN1CC(=O)N(C)[C@@H](CC(C)C)C(=O)N[C@@H](COC(C)(C)C)C(=O)N(C)[C@@H](Cc2ccccc2)C(=O)N(C)[C@@H](C)C(=O)N(C)[C@@H](C(C)C)C(=O)N[C@H](C(=O)N2CCCCC2)CC(=O)N(C)[C@H](C(C)C)C(=O)N(C)[C@@H](Cc2ccccc2)C(=O)N2CCC[C@H]2C(=O)N(C)[C@@H](C(C)C)C(=O)N(C)[C@@H](CC(C)C)C(=O)N[C@@H]([C@@H](C)O)C1=O [pd123] ([dNMeV][NMeF]P[NMeV][NMeL]T[NBuGly][NMeL]S(tBu)[NMeF][NMeA][NMeV]D-Piperidide; lactam N-13) | 0.56 10^-6 cm/sec | 0.56 ×10⁻⁶ cm/s | 31 µL/min/mg | 36.0 µL/min/mg Protein
CC[C@H](C)[C@H]1C(=O)N2CCC[C@H]2C(=O)N(C)[C@@H](C(C)C)C(=O)N(C)[C@@H](Cc2ccccc2)C(=O)N(C)[C@@H](C)C(=O)N(C)[C@@H](CC(C)C)C(=O)N[C@@H]([C@@H](C)O)C(=O)N(C)[C@@H](C)C(=O)N[C@@H](CCc2ccccc2)C(=O)N(C)[C@@H](CC(C)C)C(=O)N[C@H](C(=O)N2CCCCC2)CC(=O)N(C)CCCC(=O)N(C)[C@@H](CC(C)C)C(=O)N1C [pd124] ([NMeGABA][NMeL][NMeI]P[NMeV][NMeF][NMeA][NMeL]T[NMeA][hPhe][NMeL]D-Piperidide; lactam N-13) | 0.13 10^-6 cm/sec | 0.13 ×10⁻⁶ cm/s | 16.9 µL/min/mg | 16.6 µL/min/mg Protein
CC[C@H](C)[C@H]1C(=O)N(C)[C@@H]([C@@H](C)O)C(=O)N(C)[C@@H](CC)C(=O)N(C)[C@@H](CC(C)C)C(=O)N2CCC[C@H]2C(=O)N[C@H](C(=O)N2CCCCC2)CC(=O)N(C)[C@@H](C)C(=O)N[C@@H](CC(C)C)C(=O)N(C)[C@@H](CC(C)C)C(=O)N(C)[C@@H](C)C(=O)N2CCC[C@H]2C(=O)N[C@@H](CCc2ccccc2)C(=O)N(C)[C@@H](CC(C)C)C(=O)N1C [pd125] ([NMeA]L[NMeL][NMeA]P[hPhe][NMeL][NMeI][NMeT][NMeAbu][NMeL]PD-Piperidide; lactam N-13) | 0.13 10^-6 cm/sec | 0.13 ×10⁻⁶ cm/s | 16.7 µL/min/mg | 18.1 µL/min/mg Protein
CC[C@H]1C(=O)N(C)CC(=O)N[C@@H]([C@@H](C)O)C(=O)N(C)[C@@H](CC(C)C)C(=O)N[C@@H](CC(C)C)C(=O)N(C)[C@@H](Cc2ccccc2)C(=O)N(C)[C@@H](C(C)C)C(=O)N2CCC[C@H]2C(=O)N(C)[C@@H](C)C(=O)N(C)[C@@H](C(C)C)C(=O)N[C@H](C(=O)N2CCCCC2)CC(=O)N(C)[C@@H](CC(C)C)C(=O)N(C)[C@@H](Cc2ccccc2)C(=O)N1C [pd126] ([NMeL][NMeF][NMeAbu][Sar]T[NMeL]L[NMeF][NMeV]P[NMeA][NMeV]D-Piperidide; lactam N-13) | 0.88 10^-6 cm/sec | 0.88 ×10⁻⁶ cm/s | 23.3 µL/min/mg | 18.2 µL/min/mg Protein
CC[C@H](C)[C@@H]1NC(=O)[C@H](CC(C)C)N(C)C(=O)[C@H](CC(C)C)NC(=O)[C@H](C)N(C)C(=O)C[C@@H](C)NC(=O)[C@H](CC(C)C)NC(=O)[C@H](CC(C)C)N(C)C(=O)CN(C)C(=O)[C@H](C(C)C)NC(=O)[C@H]([C@@H](C)CC)N(C)C(=O)[C@H](CC(C)C)N(C)C(=O)[C@H](C)NC(=O)[C@H](Cc2ccccc2)N(C)C1=O [pd127] (cyclo(A[NMeL][NMeI]V[Sar][NMeL]L[d(β3hA)][NMeA]L[NMeL]I[NMeF])) | 0.36 10^-6 cm/sec | 0.36 ×10⁻⁶ cm/s | 41.6 µL/min/mg | 28.0 µL/min/mg Protein
CC[C@@H]1NC(=O)CN(C)C(=O)[C@H]([C@@H](C)O)NC(=O)[C@H](CC(C)C)N(C)C(=O)[C@H](C(C)C)NC(=O)[C@H](Cc2ccccc2)N(C)C(=O)[C@H](C)N(C)C(=O)[C@@H](C)NC(=O)C[C@@H](C)NC(=O)[C@H](C(C)C)N(C)C(=O)[C@H](Cc2ccccc2)N(C)C(=O)[C@H](COC(C)(C)C)NC(=O)[C@H](CC(C)C)N(C)C1=O [pd128] (cyclo([Abu][NMeL]S(tBu)[NMeF][NMeV][d(β3hA)][dA][NMeA][NMeF]V[NMeL]T[Sar])) | 0.05 10^-6 cm/sec | 0.05 ×10⁻⁶ cm/s | 18 µL/min/mg | 11.3 µL/min/mg Protein
CC[C@@H]1NC(=O)[C@H](CC(C)C)N(C)C(=O)[C@H]([C@@H](C)CC)NC(=O)CN(C)C(=O)C[C@@H](C)NC(=O)[C@H](C(C)C)N(C)C(=O)[C@H](COC(C)(C)C)NC(=O)[C@H](CC(C)C)N(C)C(=O)[C@H](Cc2ccccc2)N(C)C(=O)[C@H](CC(C)C)NC(=O)CN(C)C(=O)[C@H]([C@@H](C)O)NC(=O)[C@H](CC(C)C)N(C)C1=O [pd129] (cyclo([Abu][NMeL]T[Sar]L[NMeF][NMeL]S(tBu)[NMeV][d(β3hA)][Sar]I[NMeL])) | 0.71 10^-6 cm/sec | 0.71 ×10⁻⁶ cm/s | 76.5 µL/min/mg | 19.7 µL/min/mg Protein
CC[C@H](C)[C@@H]1NC(=O)[C@H](Cc2ccccc2)N(C)C(=O)[C@H](C(C)C)NC(=O)[C@@H](C)N(C)C(=O)C[C@@H](C)NC(=O)[C@H](C(C)C)N(C)C(=O)[C@H](Cc2ccccc2)N(C)C(=O)[C@H](COC(C)(C)C)NC(=O)[C@H](CC(C)C)N(C)C(=O)[C@H](C)N(C)C(=O)[C@@H]2CCCN2C(=O)[C@H]([C@@H](C)O)NC(=O)[C@H](CC(C)C)N(C)C1=O [pd130] (cyclo(I[NMeL]TP[NMeA][NMeL]S(tBu)[NMeF][NMeV][d(β3hA)][dNMeA]V[NMeF])) | 3.88 10^-6 cm/sec | 3.88 ×10⁻⁶ cm/s | 22.7 µL/min/mg | 6.8 µL/min/mg Protein
CC[C@H]1C(=O)N(C)[C@@H](C)C(=O)N(C)[C@@H](C(C)C)C(=O)N[C@H](C)CC(=O)N[C@H](C(C)C)C(=O)N(C)[C@@H](CC(C)C)C(=O)N[C@@H](CC(C)C)C(=O)N(C)[C@@H](C(C)C)C(=O)N(C)[C@@H](CC(C)C)C(=O)N(C)CC(=O)N[C@@H]([C@@H](C)O)C(=O)N(C)[C@@H](Cc2ccccc2)C(=O)N[C@@H](COC(C)(C)C)C(=O)N1C [pd131] (cyclo(L[NMeV][NMeL][Sar]T[NMeF]S(tBu)[NMeAbu][NMeA][NMeV][d(β3hA)][dV][NMeL])) | 2.18 10^-6 cm/sec | 2.18 ×10⁻⁶ cm/s | 17.8 µL/min/mg | 13.5 µL/min/mg Protein
CC[C@H](C)[C@@H]1NC(=O)[C@H](C)N(C)C(=O)[C@H]([C@@H](C)O)N(C)C(=O)[C@H](CC(C)C)N(C)C(=O)[C@H](C(C)C)NC(=O)[C@H](Cc2ccccc2)N(C)C(=O)[C@H](Cc2ccccc2)N(C)C(=O)[C@H](C)NC(=O)[C@H](CC)N(C)C(=O)[C@H]([C@@H](C)CC)NC(=O)CCCN(C)C(=O)C[C@@H](C)NC(=O)[C@H](C(C)C)N(C)C1=O [pd132] (cyclo(A[NMeF][NMeF]V[NMeL][NMeT][NMeA]I[NMeV][d(β3hA)][NMeGABA]I[NMeAbu])) | 0.36 10^-6 cm/sec | 0.36 ×10⁻⁶ cm/s | 16.2 µL/min/mg | 7.7 µL/min/mg Protein
